Legend:
[1] = tested on: QT interval; test: QT interval of patients treated with ibogaine; type: in vivo, human; conditions: higher dosing unacceptable
Excerpt: A prolonged QT interval is a marker of potential Torsades de Pointes, a serious arrhythmia that can result in death.
As used herein, the term “QT interval” refers to the measure of the time between the start of the Q wave and the end of the T wave in the electrical cycle of the heart. Prolongation of the QT interval refers to an increase in the QT interval.

[2] = tested on: pain in patients; test: human clinical studies of ibogaine dosing, alleviation of pain; type: in vivo; conditions: lower dosing of ibogaine (lower end of prior-art range 0.01 to 1000 mg/kg body weight)
Method: While ibogaine has been disclosed for treatment of substance addiction, its use in humans is complicated by the fact that the ranges in the prior art are exceptionally broad (0.01 to 1000 mg/kg body weight).

For `CCC1CC2CC3c4[nH]c5ccc(OC)cc5c4CCN(C2)C13` (centres unmarked) [ibogaine], the “prolongation of the treated patient's QT interval” value [1] was “dose dependent prolongation” and the “impact on the alleviation of pain in patients” value [2] was “minimal impact”.

— patent US9561233B2, “Use of ibogaine for the treatment of pain” (DemeRX, Inc., priority 2014, dated 2017)
